Laboratory results published in patent US20240365736A1, “COMPOSITIONS AND METHODS FOR TARGETED DEGRADATION OF PROTEINS IN A PLANT CELL” (Oerth Bio LLC, priority 2021, published 2024).

Tested on: Matricaria recutita, Diplotaxis tenuifolia, Agrostis spp., Poa annua, or Arabidopsis thaliana
Assay: Plant phenotyping assay (herbicidal phenotypes, 96-well plates); also: key: '+++' is highly active; '++' is moderately active; '+' is weakly active; '−' is inactive
Assay type: in vivo
Settings: visual score of herbicidal phenotypes after seven days; 238, 475, 950, and 1900 g ai/ha (50-400 uM)
Protocol: Seeds of Matricaria recutita, Diplotaxis tenuifolia, Agrostis spp., Poa annua, or Arabidopsis thaliana were sown into 96-well plates containing 200 μl of growth media [0.5× Murashige and Skoog (MS) basal media (Sigma-Aldrich), 2.5 mM 2-(N-morpholino) ethanesulfonic acid (MES—Sigma-Aldrich), 0.7 g/L Phytagar (Invitrogen); pH 5.7]. Three to five seeds were distributed per well. Plates were placed under fifteen hours of light at 23° C., 65% humidity in a controlled environment growth chamber. After approximately three days, test compounds and controls were mixed with acetone and emulsified with an equal volume of 3% methyl ester of rapeseed oil (Mero), and applied to plants at concentrations of 238, 475, 950, and 1900 g ai/ha (50-400 uM).

Structure (SMILES)	Plant Activity
CCOC(=O)[C@@H](C)Oc1ccc(Oc2ccc(OCCOCCN3CCC(CCCN4CCN(c5ccc6c(c5)C(=O)N(C5CCC(=O)NC5=O)C6=O)CC4)CC3)cn2)cc1 (stereo partly drawn) [Compound 6-B, Ethyl (2R)-2-[4-[[5-[2-[2-[4-[3-[4-[2-(2,6-dioxo-3-piperidyl)-1,3-dioxo-isoindolin-5-yl]piperazin-1-yl]propyl]-1-piperidyl]ethoxy]ethoxy]-2-pyridyl]oxy]phenoxy]propanoate]	+
COc1cnc(OC)n2nc(NS(=O)(=O)c3c(OCCOCCN4CCC(CCCN5CCN(c6ccc7c(c6)C(=O)N(C6CCC(=O)NC6=O)C7=O)CC5)CC4)cccc3C(F)(F)F)nc12 (centres unmarked) [Compound 4-K, N-(5,8-Dimethoxy-[1,2,4]triazolo[1,5-c]pyrimidin-2-yl)-2-(2-(2-(4-(3-(4-(2-(2,6-dioxopiperidin-3-yl)-1,3-dioxoisoindolin-5-yl)piperazin-1-yl)propyl)piperidin-1-yl)ethoxy)ethoxy)-6-(trifluoromethyl)benzenesulfonamide]	+
COc1cnc(OC)n2nc(NS(=O)(=O)c3c(OCCOCCOCCOCCNC(=O)COc4cccc5c4C(=O)N(C4CCC(=O)NC4=O)C5=O)cccc3C(F)(F)F)nc12 (centres unmarked) [Compound 4-G, N-(2-(2-(2-(2-(2-(N-(5,8-Dimethoxy-[1,2,4]triazolo[1,5-c]pyrimidin-2-yl)sulfamoyl)-3-(trifluoromethyl)phenoxy)ethoxy)ethoxy)ethoxy)ethyl)-2-((2-(2,6-dioxopiperidin-3-yl)-1,3-dioxoisoindolin-4-yl)oxy)acetamide]	++
O=C(COc1ccc(Oc2nc3ccc(F)cc3s2)cc1)NCCCOCCOCCOCCOc1ccc2c(c1)C(=O)N(C1CCC(=O)NC1=O)C2=O (centres unmarked) [Compound 8-B, N-(3-(2-(2-(2-((2-(2,6-Dioxopiperidin-3-yl)-1,3-dioxoisoindolin-5-yl)oxy)ethoxy)ethoxy)ethoxy)propyl)-2-(4-((6-fluorobenzo[d]thiazol-2-yl)oxy)phenoxy)acetamide]	+
O=C1CCC(N2C(=O)c3cccc(OCCOCCOCCOc4cccc(C(=O)C5C(=O)CCCC5=O)c4Cl)c3C2=O)C(=O)N1 (centres unmarked) [Compound 1, 4-[2-[2-[2-[2-chloro-3-(2,6-dioxocyclohexanecarbonyl)phenoxy]ethoxy]ethoxy]-ethoxy]-2-(2,6-dioxo-3-piperidyl)isoindoline-1,3-dione]	++
CCO/N=C(\CC)C1=C(O)CC(c2ccc(OCCOCCN3CCC(CCCN4CCN(c5ccc6c(c5)C(=O)N(C5CCC(=O)NC5=O)C6=O)CC4)CC3)cc2)CC1=O (centres unmarked) [Compound 5-D, (E)-2-(2,6-Dioxopiperidin-3-yl)-5-(4-(3-(1-(2-(2-((4′-(1-(ethoxyimino)propyl)-5′-hydroxy-3′-oxo-1′,2′,3′,6′-tetrahydro-[1,1′-biphenyl]-4-yl)oxy)ethoxy)ethyl)piperidin-4-yl)propyl)piperazin-1-yl)isoindoline-1,3-dione]	+
COc1cnc(OC)n2nc(NS(=O)(=O)c3c(OCCOCCOCCOCCOc4ccc5c(c4)C(=O)N(C4CCC(=O)NC4=O)C5=O)cccc3C(F)(F)F)nc12 (centres unmarked) [Compound 4-D, N-(5,8-Dimethoxy-[1,2,4]triazolo[1,5-c]pyrimidin-2-yl)-2-(2-(2-(2-(2-((2-(2,6-dioxopiperidin-3-yl)-1,3-dioxoisoindolin-5-yl)oxy)ethoxy)ethoxy)ethoxy)ethoxy)-6-(trifluoromethyl)benzenesulfonamide]	+++
COc1cnc(OC)n2nc(NS(=O)(=O)c3c(OC4CCN(CCOCCOCCN5CCN(c6ccc7c(c6)C(=O)N(C6CCC(=O)NC6=O)C7=O)CC5)CC4)cccc3C(F)(F)F)nc12 (centres unmarked) [Compound 4-I, N-(5,8-Dimethoxy-[1,2,4]triazolo[1,5-c]pyrimidin-2-yl)-2-((1-(2-(2-(2-(4-(2-(2,6-dioxopiperidin-3-yl)-1,3-dioxoisoindolin-5-yl)piperazin-1-yl)ethoxy)ethoxy)ethyl)piperidin-4-yl)oxy)-6-(trifluoromethyl)benzenesulfonamide]	+
